In patent publication US6436627B1, “Gene encoding an invertebrate α1 calcium channel subunit” (The Research Foundation of State University of New York, priority 1995, dated 2002):

Legend:
Assay type in all cases: cell-based
[1] = target: T1, Drosophila Dmca1D calcium channel (L23RDD2 α1 + α2−δ + β) (Drosophila melanogaster, UniProt Q24270, A1391P/C1440T/D1375E/D1388K/D1403I/D1421E/D1422S/D1433P/DEL1408-1416/DEL1426-1431/E1379S/E1381Q/E1419P/E1434Y/E1435P/E1441G/G1404N/H1387E/H1396E/I1402K/INS1389RKKLARTA/INS1394[…]/L1420N/M1439T/P1386E/P1400T/Q1392E/Q1417L/R1437P/S1378T/S1395G/T1399P/V1380A/V1436N); experiment: Calcium channel currents in Xenopus oocytes expressing Drosophila L23RDD2 α1 with α2-δ and β subunits; details: 2 μM BayK8644, Solution 2, BAPTA preinjection
T1 construct: rabbit cardiac α1C subunit amino acids 790-874 (85 aa insert replacing the fly II-III loop segment); expressed in transfected cells; host or cells: Xenopus oocytes injected with cRNA
T1 sequence (P13806 27-960, stated change not applied): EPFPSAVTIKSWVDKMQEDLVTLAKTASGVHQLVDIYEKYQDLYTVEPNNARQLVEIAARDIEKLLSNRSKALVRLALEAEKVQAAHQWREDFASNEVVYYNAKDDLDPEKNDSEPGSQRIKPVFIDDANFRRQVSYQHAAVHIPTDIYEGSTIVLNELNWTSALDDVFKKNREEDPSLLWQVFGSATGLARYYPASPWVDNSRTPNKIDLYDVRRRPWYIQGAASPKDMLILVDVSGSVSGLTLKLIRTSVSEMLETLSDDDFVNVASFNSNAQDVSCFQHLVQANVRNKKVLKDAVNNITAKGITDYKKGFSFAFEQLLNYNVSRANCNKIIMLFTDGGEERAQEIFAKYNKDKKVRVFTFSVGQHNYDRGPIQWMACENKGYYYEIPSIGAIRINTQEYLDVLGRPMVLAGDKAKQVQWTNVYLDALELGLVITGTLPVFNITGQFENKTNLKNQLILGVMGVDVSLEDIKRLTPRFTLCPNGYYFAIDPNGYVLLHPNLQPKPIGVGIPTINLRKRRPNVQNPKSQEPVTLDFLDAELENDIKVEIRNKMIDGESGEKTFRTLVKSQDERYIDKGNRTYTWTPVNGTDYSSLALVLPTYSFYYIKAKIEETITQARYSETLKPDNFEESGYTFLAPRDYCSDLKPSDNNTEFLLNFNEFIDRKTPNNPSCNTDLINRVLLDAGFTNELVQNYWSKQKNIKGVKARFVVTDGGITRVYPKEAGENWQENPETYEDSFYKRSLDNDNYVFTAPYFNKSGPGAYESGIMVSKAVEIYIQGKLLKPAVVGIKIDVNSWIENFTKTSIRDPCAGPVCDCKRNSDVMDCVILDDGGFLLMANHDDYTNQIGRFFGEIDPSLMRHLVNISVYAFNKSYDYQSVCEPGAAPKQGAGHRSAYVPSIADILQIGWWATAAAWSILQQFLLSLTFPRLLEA
T1 sequence (P13806 961-1106, stated change not applied): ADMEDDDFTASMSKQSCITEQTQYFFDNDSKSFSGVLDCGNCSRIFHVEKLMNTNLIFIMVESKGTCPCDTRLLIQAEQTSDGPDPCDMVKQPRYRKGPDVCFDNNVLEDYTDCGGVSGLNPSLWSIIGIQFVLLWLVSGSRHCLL
T1 sequence (Q24270 other isoform, or with tags, fused parts or gaps with the stated changes): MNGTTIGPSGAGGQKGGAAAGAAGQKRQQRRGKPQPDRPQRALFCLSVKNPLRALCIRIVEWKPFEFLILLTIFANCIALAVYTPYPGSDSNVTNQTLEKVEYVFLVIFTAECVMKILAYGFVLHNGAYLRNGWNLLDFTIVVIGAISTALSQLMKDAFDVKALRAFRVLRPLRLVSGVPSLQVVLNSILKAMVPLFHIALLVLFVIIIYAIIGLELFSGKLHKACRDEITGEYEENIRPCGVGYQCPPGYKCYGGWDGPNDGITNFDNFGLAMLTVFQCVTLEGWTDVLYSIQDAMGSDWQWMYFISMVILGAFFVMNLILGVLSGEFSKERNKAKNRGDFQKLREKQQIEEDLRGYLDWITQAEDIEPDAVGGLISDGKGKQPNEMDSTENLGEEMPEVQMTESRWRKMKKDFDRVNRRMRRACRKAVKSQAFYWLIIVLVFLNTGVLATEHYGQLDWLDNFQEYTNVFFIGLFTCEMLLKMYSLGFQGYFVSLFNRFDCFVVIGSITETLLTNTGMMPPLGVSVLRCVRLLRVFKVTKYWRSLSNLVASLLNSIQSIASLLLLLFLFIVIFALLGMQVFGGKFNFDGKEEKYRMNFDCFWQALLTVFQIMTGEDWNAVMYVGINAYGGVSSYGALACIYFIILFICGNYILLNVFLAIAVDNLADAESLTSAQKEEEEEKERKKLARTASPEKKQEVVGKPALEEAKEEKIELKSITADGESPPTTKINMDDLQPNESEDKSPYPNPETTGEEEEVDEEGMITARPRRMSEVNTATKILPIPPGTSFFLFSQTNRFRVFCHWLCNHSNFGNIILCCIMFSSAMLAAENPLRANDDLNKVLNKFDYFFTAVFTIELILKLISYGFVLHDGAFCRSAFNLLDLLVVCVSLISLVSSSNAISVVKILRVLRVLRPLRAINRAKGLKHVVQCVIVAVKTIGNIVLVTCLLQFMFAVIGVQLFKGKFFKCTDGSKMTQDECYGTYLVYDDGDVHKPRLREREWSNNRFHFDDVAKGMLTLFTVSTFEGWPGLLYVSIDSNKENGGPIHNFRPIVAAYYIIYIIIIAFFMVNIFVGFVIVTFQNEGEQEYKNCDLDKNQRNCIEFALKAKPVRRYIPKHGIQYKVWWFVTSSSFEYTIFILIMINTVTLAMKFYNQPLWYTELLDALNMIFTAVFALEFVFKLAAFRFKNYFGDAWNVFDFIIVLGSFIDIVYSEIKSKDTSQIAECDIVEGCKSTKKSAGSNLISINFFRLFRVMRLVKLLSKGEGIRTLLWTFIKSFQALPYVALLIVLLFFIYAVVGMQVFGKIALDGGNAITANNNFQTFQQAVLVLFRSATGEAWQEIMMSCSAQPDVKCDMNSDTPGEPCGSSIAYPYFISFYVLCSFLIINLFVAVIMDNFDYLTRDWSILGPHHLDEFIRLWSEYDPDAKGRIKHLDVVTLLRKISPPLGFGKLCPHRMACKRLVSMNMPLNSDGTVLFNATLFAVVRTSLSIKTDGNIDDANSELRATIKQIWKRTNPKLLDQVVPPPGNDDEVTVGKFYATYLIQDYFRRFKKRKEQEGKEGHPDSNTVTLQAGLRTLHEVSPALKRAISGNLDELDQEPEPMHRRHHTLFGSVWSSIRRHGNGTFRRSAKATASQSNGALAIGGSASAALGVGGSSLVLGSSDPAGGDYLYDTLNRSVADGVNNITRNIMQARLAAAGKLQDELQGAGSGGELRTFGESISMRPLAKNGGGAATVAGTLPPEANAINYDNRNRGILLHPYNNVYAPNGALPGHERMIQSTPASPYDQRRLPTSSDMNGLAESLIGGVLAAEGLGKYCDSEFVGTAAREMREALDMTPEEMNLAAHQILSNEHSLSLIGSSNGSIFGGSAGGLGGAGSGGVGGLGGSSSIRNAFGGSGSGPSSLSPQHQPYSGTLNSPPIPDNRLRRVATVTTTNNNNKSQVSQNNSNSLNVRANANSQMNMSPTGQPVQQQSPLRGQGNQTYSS
Description: (§1) Construct L23RDD2 in the pAGA2 vector (Wei et al. (1991) J. Biol. Chem. 266:21943-21947) encodes the Drosophila DmcalD calcium channel α1 subunit. The coding sequence begins with the fifth methionine in the published sequence (Zheng et al. (1995) J. Neurosci. 15:1132-1143). A part of the II-III cytoplasmic loop (amino acids […] in Zheng et al. (1995) J. Neurosci. 15:1132-1143) has been replaced with 85 amino acids from the rabbit cardiac α1C subunit (amino acids 790-874, Wei et al. 1991, supra ). The α2−δ subunit used in these studies is MXTα2−δ. This is an EcoRI fragment from the rabbit skeletal muscle α2−δ subunit described by Mikami et al. ((1989) Nature340:230-233) subcloned into the Xenopus oocyte expression vector pBScMXT (from L. Salkoff, Washington, St Louis). The Drosophila beta subunit clone used was β-DN2CI in oocyte expression vector pAGA2. This beta subunit isoform contains both conserved domains and the N2 form of form of the amino terminus. The rabbit cardiac α1C subunit clone (Wei et al. 1991, supra) (in the pAGA2 vector) was CardΔN60 in which the first 60 amino acids on the N terminus were deleted to enhance expression.
(§2) Injection mixtures were prepared in 1 mM Tris pH7.0 and 50 nl was injected into each oocyte. For studies of the Drosophila L23RDD2 channel αl subunit the concentrations of the “undiluted” cocktail in ng/ul were: 300 αl, 150 α2−δ, 83 β. For studies of the rabbit cardiac αl subunit the concentrations of the “undiluted” cocktail in ng/μl were: 12 α1, 6.6 α2−δ, 3.6 β. Oocytes were incubated at 18° C. in ND96 plus supplements (Goldin (1992) Methods Enz. 207:266-279) (changed daily) until recording.
(§3) Two different recording solutions were used. Solution 1 consisted of (in mM): 40 Ba(OH)2, 50 NaOH, 2 KOH, 1 niflumic acid, 0.1 EGTA, 5 HEPES, adjusted to pH 7.4 with methanesulfonic acid (Pragnell et al. (1994) Nature 368:67-70). Solution 2 was used for some experiments and consisted of (in mM): 40 Ba(OH)2, 52 TEA, 5 HEPES, adjusted to pH 7.4 with methanesulfonic acid (Yang et al. (1993) Nature 366:158-161). […]
(§4) FIG. 20 summarizes a dose response curve for the dihydropyridine antagonist nifedipine using oocytes expressing CRNA (in ng/ul): 150 L23RDD2 α1, 75 α2−δ, and 41.5 β. Each point represents 3 to 9 oocytes recorded in Solution 1. […] This compares well with the nifedipine sensitivity determined for this calcium channel in Drosophila larval muscle where 10 μM nifedipine blocks 80% of the current associated with the Dmca1D current (Gielow et al. (1995) J. Neurosci. 15:6085-6093). […] Thus, the Xenopus oocyte expression system is ready for use in testing compounds active against this calcium channel in insects. […]

[2] = target: T2, rabbit cardiac calcium channel (α1CΔN60 + α2−δ + β) (Oryctolagus cuniculus, UniProt P15381); experiment: Calcium channel currents in Xenopus oocytes expressing the rabbit cardiac α1C subunit with α2-δ and β subunits; details: 2 μM BayK8644, Solution 2, BAPTA preinjection
T2 construct: expressed in transfected cells; host or cells: Xenopus oocytes injected with cRNA
Description: We completed an analysis of 14 different chimeras to identify the region which was preventing expression of the Drosophila Dmca1D calcium channel currents in Xenopus oocytes. As a result of that analysis we defined a short region of 67 amino acids in the cytoplasmic loop between repeats II and III that was causing the difficulty (see FIG. 11). When an 85 amino acid segment from the rabbit cardiac α1 C subunit was substituted in place of this 67 amino acid Drosophila sequence, we were able to reproducibly generate small calcium channel currents using barium as the charge carrier. In this Example, and in the experiments described in the Examples below, we used a combination of subunit cRNAs. […] When control experiments were run using rabbit cardiac calcium channels, the same auxiliary subunits were used and the rabbit αlCΔN60 subunit was used in place of the Drosophila L23RDD2 α1 chimera.
Construct L23RDD2 in the pAGA2 vector (Wei et al. (1991) J. Biol. Chem. 266:21943-21947) encodes the Drosophila DmcalD calcium channel α1 subunit. The coding sequence begins with the fifth methionine in the published sequence (Zheng et al. (1995) J. Neurosci. 15:1132-1143). A part of the II-III cytoplasmic loop (amino acids 1222-1228 in Zheng et al. (1995) J. Neurosci. 15:1132-1143) has been replaced with 85 amino acids from the rabbit cardiac α1C subunit (amino acids 790-874, Wei et al. 1991, supra ). […]

[3] = target: T3, Drosophila Dmca1D calcium channel (L23RDD2 α1 + α2−δ + β) (Drosophila melanogaster, UniProt Q24270, A1391P/C1440T/D1375E/D1388K/D1403I/D1421E/D1422S/D1433P/DEL1408-1416/DEL1426-1431/E1379S/E1381Q/E1419P/E1434Y/E1435P/E1441G/G1404N/H1387E/H1396E/I1402K/INS1389RKKLARTA/INS1394QEVVGKPALEEAKEEKIELKSITAD/L1420N/M1439T/P1386E/P1400T/Q1392E/Q1417L/R1437P/S1378T/S1395G/T1399P/V1380A/V1436N); experiment: Calcium channel currents in Xenopus oocytes expressing Drosophila L23RDD2 α1 with α2-δ and β subunits
T3 construct: rabbit cardiac α1C subunit amino acids 790-874 (85 aa insert replacing the fly II-III loop segment); expressed in transfected cells; host or cells: Xenopus oocytes injected with cRNA
T3 sequence (P13806 27-960, stated change not applied): as the sequence (P13806 27-960, stated change not applied) above
T3 sequence (P13806 961-1106, stated change not applied): as the sequence (P13806 961-1106, stated change not applied) above
T3 sequence (Q24270 other isoform, or with tags, fused parts or gaps with the stated changes): as the sequence (Q24270 other isoform, or with tags, fused parts or gaps with the stated changes) above
Description: as §1, §2, §3, §4

Compound | Effect of BayK on the channel current (in words) [1] | Effect on tail current kinetics in the presence of BayK (in words) [1] | Peak current in the presence of BayK ([1]; same oocyte without BayK 1548.5 nA) | Effect of BayK on the channel current (in words) [2] | Peak current in the presence of BayK ([2]; same oocyte without BayK 488.2 nA) | EC50 [3]
COC(=O)C1=C(C)NC(C)=C([N+](=O)[O-])C1c1ccccc1C(F)(F)F (stereo not drawn) [BayK8644] | no stimulation | no obvious change in kinetics | 1208.1 nA | increase in the peak current and slowing of the tail currents | 1673.7 nA | –
COC(=O)C1=C(C)NC(C)=C(C(=O)OC)C1c1ccccc1[N+](=O)[O-] [nifedipine] | – | – | – | – | – | ~3 µM
